Assay results from publication PMC9952270, “Mitochondrial Peroxiredoxin 3 Is Rapidly Oxidized and Hyperoxidized by Fatty Acid Hydroperoxides” (Antioxidants, 2023).

Legend:
[1] = target: T1, HsPrx3 (human peroxiredoxin 3, wtHsPrx3) (Homo sapiens, UniProt P30048); experiment: stopped-flow intrinsic fluorescence, slope of kobs of second phase; type: biochemical; details: rate constant of peroxidatic Cys hyperoxidation; covalent oxidation, inactivating; pH 7.8, 11–12 °C, 50 mM sodium phosphate, 0.1 mM DTPA
T1 construct: gene PRDX3; three additional N-terminal Gly; E. coli BL21 Star (DE3); reduced subunit predicted 21,797 Da; three Cys; dodecamer when reduced
T1 sequence (P30048 62-256): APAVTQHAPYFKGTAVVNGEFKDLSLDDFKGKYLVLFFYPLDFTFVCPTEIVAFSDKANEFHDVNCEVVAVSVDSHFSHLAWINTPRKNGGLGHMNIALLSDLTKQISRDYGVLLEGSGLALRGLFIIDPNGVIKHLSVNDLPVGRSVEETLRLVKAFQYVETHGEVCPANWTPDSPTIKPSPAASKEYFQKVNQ
Excerpt: stopped-flow intrinsic fluorescence, slope of kobs of second phase on HsPrx3 (human peroxiredoxin 3, wtHsPrx3)

[2] = target: T1, HsPrx3 (human peroxiredoxin 3, wtHsPrx3); experiment: thermal unfolding by intrinsic fluorescence; type: binding; details: reduced HsPrx3 4 µM, AA 10 µM, 2 mM DTT, 50 mM phosphate, 0.1 mM DTPA, pH 7.8
[3] = target: T1, HsPrx3 (human peroxiredoxin 3, wtHsPrx3); experiment: intrinsic tryptophan fluorescence quenching / FRET titration, hyperbolic fit; type: binding
[4] = target: the molecule itself; experiment: ESI mass spectrometry of the intact protein after C4 HPLC; reduced HsPrx3 (10 µM) in 50 mM phosphate buffer plus 0.1 mM DTPA, pH 7.8, 25 °C, exposed to H2O2 (20 µM) or 15(S)-HpEPE (10 or 20 µM), alkylated with 2-iodoacetamide (5 mM); disulfide-bonded dimer

Molecule | khyperox. (M^-1s^-1) [1] | also measured
CC/C=C\C[C@@H](/C=C/C=C\C/C=C\C/C=C\CCCC(=O)O)OO [15(S)-HpEPE, 15S-hydroperoxy-5Z,8Z,11Z,13E,17Z-eicosapentaenoic acid] | (2.6 ± 0.4) × 10^7 M^−1s^−1 | 
CCCCC[C@@H](/C=C/C=C\C/C=C\C/C=C\CCCC(=O)O)OO [15(S)-HpETE, 15S-hydroperoxy-5Z,8Z,11Z,13E-eicosatetraenoic acid] | (1.7 ± 0.1) × 10^7 M^−1s^−1 | 
CCCCC/C=C\C/C=C\C/C=C\C/C=C\CCCC(=O)O [AA] |  | Tm shift [2]: ~ 4 °C
O=S(=O)(O)c1cccc2cccc(Nc3ccccc3)c12 [ANS, 8-anilino-1-naphtalene sulfonic acid] |  | Kd [3]: 65 ± 4 µM
CCCCC[C@@H](/C=C/[C@@H]1[C@@H](C/C=C\CCCC(=O)O)[C@@H]2C[C@H]1OO2)OO [PGG2, 9α,11α-epidioxy-15S-hydroperoxy-prosta-5Z,13E-dien-1-oic acid] | (3.1 ± 0.7) × 10^5 M^−1s^−1 | 
Human peroxiredoxin 3 (wild type, recombinant, lacking the mitochondrial targeting sequence) (enzyme, predicted molecular weight of the reduced subunit 21,797 Da; Samples were alkylated (NEM or 2-iodoacetamide) before analysis; also called HsPrx3; wtHsPrx3; source: E. coli BL21 Star (DE3), purified as previously reported [13]) GGGAPAVTQHAPYFKGTAVVNGEFKDLSLDDFKGKYLVLFFYPLDFTFVCPTEIVAFSDKANEFHDVNCEVVAVSVDSHFSHLAWINTPRKNGGLGHMNIALLSDLTKQISRDYGVLLEGSGLALRGLFIIDPNGVIKHLSVNDLPVGRSVEETLRLVKAFQYVETHGEVCPANWTPDSPTIKPSPAASKEYFQKVNQ |  | stoichiometry N [4]: 2
